Values joined by “and” are separate entries in the source; they are usually repeats but may differ in a detail not shown here. Equal values may be shown once. ± gives the uncertainty stated by the source.
Experiment: xn = mol fraction of the nth substance listed

Nc1ccccc1 + C1CCCCC1
Conditions | viscosity
301.05 K, 101.32 kPa, x1 = 0.7073 | 1.9 ± 0.047 mPa·s
301.92 K, 101 kPa, x1 = 0.238 | 1.083 ± 0.014 mPa·s
302.2 K, 101 kPa, x1 = 0.592 | 1.621 ± 0.02 mPa·s
302.46 K, 101 kPa, x1 = 0.745 | 1.893 ± 0.024 mPa·s
302.5 K, 101 kPa, x1 = 0.63 | 1.651 ± 0.021 mPa·s
302.66 K, 101 kPa, x1 = 0.71 | 1.798 ± 0.022 mPa·s
302.76 K, 101 kPa, x1 = 0.337 | 1.185 ± 0.015 mPa·s
303 K, 101 kPa, x1 = 0.442 | 1.643 ± 0.076 mPa·s and 1.611 ± 0.046 mPa·s
303.02 K, 101 kPa, x1 = 0.442 | 1.57 ± 0.028 mPa·s
303.08 K, 101 kPa, x1 = 0.39 | 1.305 ± 0.018 mPa·s
303.09 K, 101 kPa, x1 = 0.442 | 1.539 ± 0.022 mPa·s
303.12 K, 101 kPa, x1 = 0.592 | 1.574 ± 0.02 mPa·s
303.15 K, 101 kPa, x1 = 0.442 | 1.496 ± 0.023 mPa·s
303.15 K, 101.32 kPa, x1 = 0.7073 | 1.79 ± 0.046 mPa·s
303.22 K, 101 kPa, x1 = 0.442 | 1.458 ± 0.02 mPa·s
303.26 K, 101 kPa, x1 = 0.745 | 1.847 ± 0.023 mPa·s
303.35 K, 101 kPa, x1 = 0.442 | 1.419 ± 0.018 mPa·s
303.39 K, 101 kPa, x1 = 0.39 | 1.275 ± 0.016 mPa·s
303.58 K, 101 kPa, x1 = 0.492 | 1.434 ± 0.018 mPa·s
303.61 K, 101 kPa, x1 = 0.442 | 1.386 ± 0.018 mPa·s
303.68 K, 101 kPa, x1 = 0.41 | 1.31 ± 0.017 mPa·s
303.76 K, 101 kPa, x1 = 0.442 | 1.366 ± 0.017 mPa·s
303.9 K, 101 kPa, x1 = 0.442 | 1.353 ± 0.017 mPa·s
303.92 K, 101 kPa, x1 = 0.39 | 1.238 ± 0.016 mPa·s
304.07 K, 101 kPa, x1 = 0.592 | 1.531 ± 0.019 mPa·s
304.09 K, 101 kPa, x1 = 0.745 | 1.808 ± 0.023 mPa·s
304.1 K, 101 kPa, x1 = 0.442 | 1.335 ± 0.017 mPa·s
304.25 K, 101 kPa, x1 = 0.71 | 1.731 ± 0.022 mPa·s
304.32 K, 101 kPa, x1 = 0.543 | 1.452 ± 0.018 mPa·s
304.38 K, 101 kPa, x1 = 0.442 | 1.32 ± 0.017 mPa·s
304.39 K, 101 kPa, x1 = 0.337 | 1.109 ± 0.014 mPa·s
304.42 K, 101 kPa, x1 = 0.39 | 1.215 ± 0.015 mPa·s
304.51 K, 101 kPa, x1 = 0.523 | 1.41 ± 0.018 mPa·s
304.53 K, 101 kPa, x1 = 0.492 | 1.373 ± 0.017 mPa·s
304.56 K, 101 kPa, x1 = 0.63 | 1.546 ± 0.019 mPa·s
304.58 K, 101 kPa, x1 = 0.442 | 1.302 ± 0.017 mPa·s
304.59 K, 101 kPa, x1 = 0.41 | 1.244 ± 0.016 mPa·s
304.64 K, 101 kPa, x1 = 0.462 | 1.334 ± 0.017 mPa·s
304.75 K, 101.32 kPa, x1 = 0.5628 | 1.51 ± 0.044 mPa·s
304.99 K, 101 kPa, x1 = 0.442 | 1.281 ± 0.016 mPa·s
305.01 K, 101 kPa, x1 = 0.745 | 1.77 ± 0.022 mPa·s
305.05 K, 101.32 kPa, x1 = 0.5628 | 1.48 ± 0.043 mPa·s
305.17 K, 101 kPa, x1 = 0.71 | 1.693 ± 0.021 mPa·s
305.24 K, 101 kPa, x1 = 0.442 | 1.268 ± 0.016 mPa·s
305.41 K, 101 kPa, x1 = 0.39 | 1.169 ± 0.015 mPa·s
305.51 K, 101 kPa, x1 = 0.592 | 1.466 ± 0.018 mPa·s
305.83 K, 101 kPa, x1 = 0.745 | 1.737 ± 0.022 mPa·s
305.91 K, 101 kPa, x1 = 0.442 | 1.236 ± 0.016 mPa·s
306.15 K, 101.32 kPa, x1 = 0.7073 | 1.65 ± 0.045 mPa·s
306.28 K, 101 kPa, x1 = 0.337 | 1.051 ± 0.013 mPa·s
306.33 K, 101 kPa, x1 = 0.462 | 1.247 ± 0.016 mPa·s
306.36 K, 101 kPa, x1 = 0.442 | 1.216 ± 0.015 mPa·s
306.36 K, 101 kPa, x1 = 0.492 | 1.292 ± 0.016 mPa·s
306.37 K, 101 kPa, x1 = 0.543 | 1.363 ± 0.017 mPa·s
306.39 K, 101 kPa, x1 = 0.63 | 1.481 ± 0.019 mPa·s
306.5 K, 101 kPa, x1 = 0.523 | 1.328 ± 0.017 mPa·s
306.54 K, 101 kPa, x1 = 0.41 | 1.163 ± 0.015 mPa·s
306.88 K, 101 kPa, x1 = 0.71 | 1.624 ± 0.02 mPa·s
307.09 K, 101 kPa, x1 = 0.745 | 1.683 ± 0.021 mPa·s
307.11 K, 101 kPa, x1 = 0.442 | 1.192 ± 0.015 mPa·s
307.79 K, 101 kPa, x1 = 0.592 | 1.39 ± 0.018 mPa·s
307.84 K, 101 kPa, x1 = 0.442 | 1.159 ± 0.015 mPa·s
308.04 K, 101 kPa, x1 = 0.492 | 1.235 ± 0.016 mPa·s
308.08 K, 101 kPa, x1 = 0.745 | 1.642 ± 0.021 mPa·s
308.26 K, 101 kPa, x1 = 0.41 | 1.103 ± 0.014 mPa·s
308.28 K, 101 kPa, x1 = 0.39 | 1.07 ± 0.014 mPa·s
308.35 K, 101 kPa, x1 = 0.337 | 0.993 ± 0.013 mPa·s
308.35 K, 101 kPa, x1 = 0.462 | 1.172 ± 0.015 mPa·s
308.36 K, 101 kPa, x1 = 0.543 | 1.292 ± 0.016 mPa·s
308.41 K, 101 kPa, x1 = 0.63 | 1.409 ± 0.018 mPa·s
308.43 K, 101 kPa, x1 = 0.523 | 1.261 ± 0.016 mPa·s
309.04 K, 101 kPa, x1 = 0.745 | 1.609 ± 0.02 mPa·s
309.11 K, 101 kPa, x1 = 0.442 | 1.122 ± 0.014 mPa·s
309.15 K, 101.32 kPa, x1 = 0.7073 | 1.53 ± 0.044 mPa·s
309.4 K, 101 kPa, x1 = 0.592 | 1.324 ± 0.017 mPa·s
309.69 K, 101 kPa, x1 = 0.71 | 1.52 ± 0.019 mPa·s
309.88 K, 101 kPa, x1 = 0.492 | 1.169 ± 0.015 mPa·s
310.04 K, 101 kPa, x1 = 0.745 | 1.57 ± 0.02 mPa·s
310.08 K, 101 kPa, x1 = 0.543 | 1.234 ± 0.016 mPa·s
310.21 K, 101 kPa, x1 = 0.337 | 0.953 ± 0.012 mPa·s
310.23 K, 101 kPa, x1 = 0.41 | 1.047 ± 0.013 mPa·s
310.32 K, 101 kPa, x1 = 0.442 | 1.09 ± 0.014 mPa·s
310.32 K, 101 kPa, x1 = 0.462 | 1.117 ± 0.014 mPa·s
310.41 K, 101 kPa, x1 = 0.523 | 1.2 ± 0.015 mPa·s
310.49 K, 101 kPa, x1 = 0.63 | 1.345 ± 0.017 mPa·s
311.23 K, 101 kPa, x1 = 0.745 | 1.534 ± 0.019 mPa·s
311.28 K, 101 kPa, x1 = 0.592 | 1.258 ± 0.016 mPa·s
311.35 K, 101 kPa, x1 = 0.39 | 0.995 ± 0.013 mPa·s
311.37 K, 101 kPa, x1 = 0.442 | 1.063 ± 0.014 mPa·s
311.64 K, 101 kPa, x1 = 0.492 | 1.12 ± 0.014 mPa·s
311.89 K, 101 kPa, x1 = 0.523 | 1.16 ± 0.015 mPa·s
311.98 K, 101 kPa, x1 = 0.71 | 1.439 ± 0.018 mPa·s
311.98 K, 101 kPa, x1 = 0.745 | 1.501 ± 0.019 mPa·s
312.01 K, 101 kPa, x1 = 0.462 | 1.067 ± 0.014 mPa·s
312.07 K, 101 kPa, x1 = 0.41 | 1.004 ± 0.013 mPa·s
312.11 K, 101 kPa, x1 = 0.337 | 0.919 ± 0.012 mPa·s
312.18 K, 101 kPa, x1 = 0.63 | 1.289 ± 0.016 mPa·s
312.19 K, 101 kPa, x1 = 0.543 | 1.174 ± 0.015 mPa·s
312.2 K, 101 kPa, x1 = 0.442 | 1.042 ± 0.013 mPa·s

Source: the CheMixHub viscosity set
